SMILES strings stand for the structures.

This is an account of results in patent publication US9139502B2, “Use of an urushiol compound in preparation of pharmaceutical compositions for inhibiting Smad3 phosphorylation” (Southern Hospital, Southern Medical University, priority 2013, dated 2015).

For one series, the system named is α-SMA. The experiment in a line: Real-time PCR of TGF-β1-induced α-SMA mRNA in vitro. In kind it is cell-based, rat. The settings on record: NRK 52E and NRK 49F cells, GQ-5 0.1-2.5 μM pre-treated 1 h, TGF-β1 10 ng/ml 36 h. The protocol: (§1) NRK52E and NRK49F cells were cultured in DMEM-Ham's medium supplemented with 10% fetal bovine serum. The cells reached at approximately 50% confluence were used for in vitro experiments. Cells were serum-starved for 12 h, and randomized into 6 groups: (1) Controls; (2) GQ-5 only; (3) TGF-β1 only; (4) TGF-β1+GQ-5 0.1 μM; (5) TGF-β1+GQ-5 0.5 μM; (6) TGF-β1+GQ-5 2.5 μM
(§2) (2) GQ-5 only: pre-treated with GQ-5 (2.5 μM) for 1 h, followed with DMEM for 36 h
(§3) (3) TGF-β1 only: pre-treated with DMSO for 1 h, followed with TGF-β1 (10 ng/ml) for 36 h
(§4) (4) TGF-β1+GQ-5 0.1 μM: pre-treated with GQ-5 (0.1 μM) for 1 h, followed with TGF-β1 (10 ng/ml) for 36 h
(§5) (5) TGF-β1+GQ-5 0.5 μM: pre-treated with GQ-5 (0.5 μM) for 1 h, followed with TGF-β1 (10 ng/ml) for 36 h
(§6) (6) TGF-β1+GQ-5 2.5 μM: pre-treated with GQ-5 (2.5 μM) for 1 h, followed with TGF-β1 (10 ng/ml) for 36 h
(§7) GQ-5 was dissolved in DMSO. Cells were treated as described. Cells were collected for mRNA extraction. Real-rime PCR was performed to examine the mRNA expression of α-SMA, collagen I and fibronectin.
For orientation: Real-time PCR tracks product formation cycle by cycle.

The next series relates to PI3K. The experiment in a line: Western blot of TGF-β1-induced PI3K phosphorylation in vitro. The format is cell-based, rat. The settings on record: NRK52E and NRK49F cells, GQ-5 2.5 nM pre-treated 1 h, TGF-β1 10 ng/ml 1 h. The protocol:
(§8) NRK52E and NRK49F cells were cultured in DMEM-Ham's medium (Gibco, Life Techologies, NY, USA) supplemented with 10% fetal bovine serum (Gibco, Life Techologies, NY, USA). The cells reached at approximately 50% confluence were used for in vitro experiments. Cells were serum-starved for 12 h, and randomized into 4 groups: (1) Controls; (2) GQ-5 only; (3) TGF-β1 only; (4) TGF-β1+GQ-5
(§9) (2) GQ-5 only: pre-treated with GQ-5 (2.5 μM) for 1 h, followed with DMEM for 1 h
(§10) (3) TGF-β1 only: pre-treated with DMSO (0.1%) for 1 h, followed with TGF-β1 (10 ng/ml) for 1 h
(§11) (4) TGF-β1+GQ-5: pre-treated with GQ-5 (2.5 nM) for 1 h, followed with TGF-β1 (10 ng/ml) for 1 h
(§12) GQ-5 was dissolved in DMSO. Cells were treated as described. cell lysates were immunoblotted with antibodies against Smad4, Smad7, phospho-p38, p38, phospho-PI3K, PI3K, phosphor-ERK, and ERK.

The subject of series [1] is ERK. Nature of the series: Western blot of ERK phosphorylation in UUO kidneys. In kind it is in vivo, rat. The settings on record: UUO rats, GQ-5 40 mg/kg daily i.p. right after UUO, sacrificed day 14. The protocol: (§13) Male Sprague-Dawley rats with body weight 200 to 250 g were randomized into 3 groups (n=6 in each group): (1) sham operated rats; (2) UUO rats; (3) UUO+GQ-5 rats.
(§14) GQ-5 was dissolved in 5% propylene glycol.
(§15) (3) UUO+GQ-5 rats: daily intraperitoneal injection of GQ-5 (40 mg/kg body weight) right after UUO;
(§16) UUO was performed using an established protocol as described. GQ-5 was dissolved in 5% propylene glycol. Rats were administrated with GQ-5 as described before. All the rats were sacrificed 14 days after UUO. Western blot analyses were performed to examine the Smad4, Smad7 expression and p38, PI3K, ERK phosphorylation.
(In general: A western blot detects proteins with antibodies after separation by electrophoresis.)

For series [2], the system named is Smad3-dependent collagen I promoter. Nature of the series: Luciferase reporter assay of Smad3-dependent collagen I promoter activity. Conditions: NRK52E cells transfected with p(GAGA)12-luc, GQ-5 0.1, 0.5, 2.5 μM pre-treated 1 h, TGF-β1 10 ng/ml 24 h. In kind it is cell-based, rat. For orientation: A reporter such as luciferase makes a cellular process visible.
The next series deals with collagen I. The experiment in a line: Real-time PCR of TGF-β1-induced collagen I mRNA in vitro. Conditions: NRK 52E and NRK 49F cells, GQ-5 0.1-2.5 μM pre-treated 1 h, TGF-β1 10 ng/ml 36 h. The format is cell-based, rat. The protocol: as §1, §2, §3, §4, §5, §6, §7
Series [3] addresses interaction of Smad3 with TβRI (Rattus norvegicus, UniProt P84025). Nature of the series: Immunoprecipitation of Smad3 with TβRI in UUO kidneys. Set-up: from tissue; host or cells: kidney of UUO Sprague-Dawley rats. Conditions: GQ-5 40 mg/kg daily i.p. right after UUO, sacrificed day 14. The format is in vivo. The protocol:
as §13, §14, §15
UUO was performed using an established protocol as described. GQ-5 was dissolved in 5% propylene glycol. Rats were administrated with GQ-5 as described before. All the rats were sacrificed 14 days after UUO. Immunoprecipitation analyses were performed to examine the interaction among TβRI, TβRII, Smad3 and Smad2.

Series [4] concerns Smad4. Nature of the series: Western blot of Smad4 expression in vitro. In kind it is cell-based, rat. Conditions: NRK52E and NRK49F cells, GQ-5 2.5 nM pre-treated 1 h, TGF-β1 10 ng/ml 1 h. The protocol:
as §8, §9, §10, §11, §12

The subject of the next series is Smad7. Nature of the series: Western blot of Smad7 expression in UUO kidneys. The settings on record: UUO rats, GQ-5 40 mg/kg daily i.p. right after UUO, sacrificed day 14. In kind it is in vivo, rat. The protocol:
as §13, §14, §15, §16

The subject of series [5] is Smad4. Nature of the series: Western blot of Smad4 expression in UUO kidneys. In kind it is in vivo, rat. Conditions: UUO rats, GQ-5 40 mg/kg daily i.p. right after UUO, sacrificed day 14. The protocol: as §13, §14, §15, §16
In the next series the test system is Smad2. The experiment in a line: Immunofluorescence staining of Smad2 nuclear translocation. The format is cell-based, rat. Conditions: NRK52E cells, GQ-5 2.5 μM pre-treated 1 h, TGF-β1 10 ng/ml 2 h. The protocol: NRK52E cells were cultured in DMEM-Ham's medium supplemented with 10% fetal bovine serum. The cells reached at approximately 50% confluence were used for in vitro experiments. Cells were serum-starved for 12 h, and randomized into 3 groups: (1) Controls; (2) TGF-β1 only; (3) TGF-β1+GQ-5.
(2) TGF-β1 only: pre-treated with DMSO for 1 h, followed with TGF-β1 (10 ng/ml) for 2 h
(3) TGF-β1+GQ-5: pre-treated with GQ-5 (2.5 μM) for 1 h, followed with TGF-β1 (10 ng/ml) for 2 h
GQ-5 was dissolved in DMSO. Cells were treated as described Immunofluorescence staining was performed to examine the nuclear translocation of Smad2, Smad3, and Smad4.

For series [6], the system named is ERK. Nature of the series: Western blot of TGF-β1-induced ERK phosphorylation in vitro. The format is cell-based, rat. Conditions: NRK52E and NRK49F cells, GQ-5 2.5 nM pre-treated 1 h, TGF-β1 10 ng/ml 1 h. The protocol: as §8, §9, §10, §11, §12
Another series deals with NRK52E cells. The experiment in a line: MTT cell viability test. The format is cell-based, rat. The settings on record: GQ-5 0.25-4 μM, 1 h. The protocol:
To test the toxicity of GQ-5, rat proximal tubular cells (NRK52E) were seeded into 96-well plates in a volume of 200 μl per well (1×10^5 cell/ml) and incubated for 24 hours to allow cells to attach. The cells were then incubated with indicated amount of GQ-5 for 1 h. Cell viability was determined by addition of 20 μl of 3-(4,5-dimethylthiazol-2-yl)-2, 5-diphenyltetrazolium bromide (MTT) at a concentration of 5 mg/ml. After incubation for 4 hours, the medium was removed and 150 μl of DMSO was added to dissolve the formazan crystals. The absorbance was read at 540 nm by using iMark™Microplate Reader (Bio-Rad).

Sequence of interaction of Smad3 with TβRI (P84025 whole entry): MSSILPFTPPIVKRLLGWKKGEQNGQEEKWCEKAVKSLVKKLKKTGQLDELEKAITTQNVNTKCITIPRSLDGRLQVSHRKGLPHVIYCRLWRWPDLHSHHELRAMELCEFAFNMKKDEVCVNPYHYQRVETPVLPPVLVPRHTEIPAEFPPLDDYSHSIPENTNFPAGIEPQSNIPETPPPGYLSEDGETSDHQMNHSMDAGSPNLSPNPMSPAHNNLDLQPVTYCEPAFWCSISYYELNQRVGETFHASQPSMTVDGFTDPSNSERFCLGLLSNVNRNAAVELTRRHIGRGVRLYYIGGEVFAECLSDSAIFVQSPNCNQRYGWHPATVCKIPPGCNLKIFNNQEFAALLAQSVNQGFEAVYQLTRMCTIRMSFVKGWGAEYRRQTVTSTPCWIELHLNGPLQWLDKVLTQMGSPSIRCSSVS

As for `CCCCCC/C=C\CCCCCCCc1cccc(O)c1O` [GQ-5, 3-[(Z)-pentadec-8-enyl]catechol], the “TGF-β1-induced mRNA expression of α-SMA” value in the series with α-SMA is on record as “significantly inhibited”. In the series on PI3K, the “TGF-β1-induced phosphorylation of PI3K” value is reported as “did not affect”. Moreover, the “phosphorylation of ERK” value with ERK [1] is reported as “did not affect”. Further, in series [2], the “TGF-β1-induced Smad3-dependent collagen I promoter activity” value is “significantly inhibited TGF-β1-induced Smad3-dependent collagen I promoter activity in a dose-dependent manner”. Besides, the “TGF-β1-induced mRNA expression of collagen I” value with collagen I was “significantly inhibited”. For the same compound, in series [3], the “interaction of Smad3 with TβRI” value is on record as “significantly blocked”. Also, in the series on Smad4 [4], the “protein expression of Smad4” value was “did not affect”. Besides, the “expression of Smad7” value in the series on Smad7 is reported as “did not affect”. In addition, in the series with Smad4 [5], the “expression of Smad4” value was “did not affect”. Besides, the “nuclear translocation of Smad2” value in the series on Smad2 was “also reduced”. The “TGF-β1-induced phosphorylation of ERK” value with ERK [6] is listed as “did not affect”. The “viability and proliferation of the cells (MTT)” value in the series with NRK52E cells is “did not affect”.
